In patent US20230365577A1, “Photodynamic Therapy and Diagnosis” (RMW CHO Group Limited, priority 2020, published 2023):
Counter-ions that a name gives are not always drawn. Like-named read-outs stand apart in the source and are kept apart here.

Assays:
[1] = Singlet oxygen (1O2) production rate; type: physicochemical
Description: The production of singlet oxygen (^1O2), cellular phototoxicity and light-independent cytotoxicity (“dark toxicity”) of a number of phyllochlorin analogues were compared against chlorin e4 disodium and Talaporfin sodium (mono-L-aspartyl chlorin e6), the active ingredient of Laserphyrin™.

[2] = system: SKOV3 ovarian cancer cells; experiment: Inherent cytotoxicity (dark toxicity) in SKOV3 cells (AlamarBlue viability); type: cell-based, Human
Procedure: (§1) Human ovarian cancer cell line SKOV3 (ATCC #HTB-77) was maintained in Dulbecco's Modified Eagle Medium/Nutrient Mixture F-12 (DMEM/F-12), supplemented with 10% v/v Fetal Bovine Serum, 100 U/mL penicillin and 100 µg/mL streptomycin. Monolayer cultures were grown in a humidified incubator at 37° C. with 5% CO2.
(§2) For in vitro experiments, photosensitizers (stock solution 5.5 mM in 100% DMSO) were diluted in cell culture media (Dulbecco's Modified Eagle Medium/Nutrient Mixture F-12) supplemented with 10% v/v Fetal Bovine Serum, 100 U/mL penicillin, 100 µg/mL streptomycin and 10% w/v Kollidon-12. Once cells had reached ˜80% confluence, spent media was replaced with media containing photosensitizer and cells were incubated for the desired period of time to allow photosensitizer uptake.
(§3) SKOV3 cells were seeded in 96-well black wall plates (Greiner #655090) at a cell density of 5000 cells in 100 μl culture medium per well. On reaching ˜60% confluence, media was aspirated and replaced with fresh media containing the relevant phyllochlorin analogue from 0-100 μM in DMSO. Cells were incubated for a further 24 hours, allowing uptake of phyllochlorin analogues.
To test for inherent cytotoxicity (i.e. “dark toxicity”) of the phyllochlorin analogue the culture media was replaced after 24 hours with fresh media containing 10% (v/v) AlamarBlue Cell Viability Reagent (ThermoFisher) and cells incubated at 37° C. for 6 hours. Untreated cells were used as a control. Fluorescence (Ex 555 nm/Em 596 nm) was measured using a Cytation 3 Multimode Plate Reader (Biotek), and cytotoxicity assessed according to the % viable cells remaining. All measurements were made in quadruplicate.
(§4) For comparative purposes, phyllochlorin analogues were tested and compared against both chlorin e4 disodium and Talaporfin sodium, a clinically approved photosensitizer used in the photodynamic treatment of lung cancers. Phototoxicity IC90 values and dark toxicity IC10 values were calculated using a log[inhibitor]-vs normalized response dose curve with variable slope, using the formula Y=100/(1+(IC90/X)^HillSlope (phototoxicity IC90) or Y=100/(1+(IC10/X)^HillSlope (dark toxicity IC10).

[3] = system: SKOV3 ovarian cancer cells; experiment: Phototoxicity in SKOV3 cells (652 nm laser, AlamarBlue viability); type: cell-based, Human
Procedure: as §1, §2
as §3, with “confluence, so” for “confluence,”
To test for phototoxicity, cells incubated with phyllochlorin analogues (0-10 μM in DMSO) had culture media replaced after 24 hours (as above) and were then exposed to a 652 nm laser (Invion) with laser density at 50 mW/cm^2 for 5 mins (total 15 J/cm^2). Following activation, cells were cultured for a further 24 hours. Media was then replaced with fresh media containing AlamarBlue, and % viable cells remaining assessed as above. Controls included cells treated with phyllochlorin analogues but not activated by laser light; cells without phyllochlorin analogue treatment but with laser light; and untreated controls. All measurements were made in quadruplicate.
as §4

[4] = SKOV3, 24 h uptake, 652 nm laser 50 mW/cm2 5 mins (15 J/cm2), viability 24 h later, read-out: Cellular Toxicity: Phototoxicity IC90
[5] = Homo sapiens, SK-OV-3, light or radiation study, SKOV3, 24 h uptake, 652 nm laser 50 mW/cm2 5 mins (15 J/cm2), viability 24 h later, read-out: Cellular Toxicity: Phototoxicity IC90
[6] = Homo sapiens, SK-OV-3, light or radiation study, SKOV3, read-out: Phototoxicity apparent IC90
[7] = Homo sapiens, SK-OV-3, light or radiation study, read-out: Cellular Toxicity: Phototoxicity IC90, SKOV3, 24 h uptake, 652 nm laser 50 mW/cm2 5 mins (15 J/cm2), viability 24 h later

Compound	Singlet Oxygen Production (slope) 1O2 [1]	Cellular Toxicity: Dark toxicity IC10 ([2]; human, 24 h) [µM]	IC90 [3, 5] [µM]	other results
3-((7S,8S)-18-ethyl-2,5,8,12,17-pentamethyl-13-vinyl-7H,8H-porphyrin-7-yl)-N-(2-(2-hydroxyethoxy)ethyl)-N-methylpropanamide zinc complex [Compound 21]	423.4	–	–	Fold decrease in the rate of ROS production on Zn2+ complexation ([1]; compound 21 versus compound 18): ~2.5 fold; Cellular Toxicity: Dark toxicity IC10 [2]: 8.17 µM; IC90 [3, 4]: 4.77 µM
3-((7S,8S)-18-ethyl-2,5,8,12,17-pentamethyl-13-vinyl-7H,8H-porphyrin-7-yl)-N-methyl-N-(3-(((2S,3R,4S,5S,6R)-3,4,5-trihydroxy-6-(hydroxymethyl)tetrahydro-2H-pyran-2-yl)thio)propyl)propanamide zinc complex [Compound 19]	404.7	–	–	Cellular Toxicity: Dark toxicity IC10 [2]: 20.20 µM; IC90 [3, 4]: 12.8 µM
C=Cc1c(C)c2cc3nc(c(C)c4cc(C)c(cc5nc(cc1[nH]2)C(C)=C5CC)[nH]4)[C@@H](CCC(=O)O)[C@@H]3C [Compound 1a, phyllochlorin potassium salt]	–	12.41	–	Singlet Oxygen Production (slope) 1O2 ([1]; potassium salt): 760.9; IC90 ([3]; SKOV3, 24 h uptake, 652 nm laser 50 mW/cm2 5 mins (15 J/cm2), viability 24 h later, potassium salt, read-out: Cellular Toxicity: Phototoxicity IC90): 0.47 µM
C=Cc1c(C)c2cc3nc(c(C)c4cc(C)c(cc5nc(cc1[nH]2)C(C)=C5CC)[nH]4)[C@@H](CCC(=O)O)[C@@H]3C [Compound 1b, phyllochlorin lithium salt]	–	22.13	–	Singlet Oxygen Production (slope) 1O2 ([1]; lithium salt): 841.7; IC90 ([3]; SKOV3, 24 h uptake, 652 nm laser 50 mW/cm2 5 mins (15 J/cm2), viability 24 h later, lithium salt, read-out: Cellular Toxicity: Phototoxicity IC90): 1.4 µM
C=Cc1c(C)c2cc3nc(c(C)c4cc(C)c(cc5nc(cc1[nH]2)C(C)=C5CC)[nH]4)[C@@H](CCC(=O)O)[C@@H]3C [Compound 1d, phyllochlorin arginine salt]	833.9	18.15	–	IC90 ([3]; read-out: Cellular Toxicity: Phototoxicity IC90, SKOV3, 24 h uptake, 652 nm laser 50 mW/cm2 5 mins (15 J/cm2), viability 24 h later): 1.42 µM
C=Cc1c(C)c2cc3nc(c(C)c4cc(C)c(cc5nc(cc1[nH]2)C(C)=C5CC)[nH]4)[C@@H](CCC(=O)O)[C@@H]3C [Compound 1e, phyllochlorin meglumine salt]	938.8	20.73	–	IC90 [3, 4]: 1.79 µM
C=Cc1c(C)c2cc3nc(c(C)c4cc(C)c(cc5nc(cc1[nH]2)C(C)=C5CC)[nH]4)[C@@H](CCC(=O)N(C)CCOCCOCCO)[C@@H]3C [Compound 4, 3-((7S,8S)-18-ethyl-2,5,8,12,17-pentamethyl-13-vinyl-7H,8H-porphyrin-7-yl)-N-(2-(2-(2-hydroxyethoxy)ethoxy)ethyl)-N-methylpropanamide]	2191.0	16.41	0.12	–
C=Cc1c(C)c2cc3nc(c(C)c4cc(C)c(cc5nc(cc1[nH]2)C(C)=C5CC)[nH]4)[C@@H](CCC(=O)N(C)CCCO)[C@@H]3C [Compound 5, 3-((7S,8S)-18-ethyl-2,5,8,12,17-pentamethyl-13-vinyl-7H,8H-porphyrin-7-yl)-N-(3-hydroxypropyl)-N-methylpropanamide]	2385.0	20.82	0.05	Rate of ROS production relative to chlorin e4 disodium and Talaporfin sodium [1]: more than double; IC90 [3, 6]: < 0.1 µM
C=Cc1c(C)c2cc3nc(c(C)c4cc(C)c(cc5nc(cc1[nH]2)C(C)=C5CC)[nH]4)[C@@H](CCC(=O)N(C)CCCCCO)[C@@H]3C [Compound 7, 3-((7S,8S)-18-ethyl-2,5,8,12,17-pentamethyl-13-vinyl-7H,8H-porphyrin-7-yl)-N-(5-hydroxypentyl)-N-methylpropanamide]	1494.0	14.27	0.05	IC90 [3, 6]: < 0.1 µM
C=Cc1c(C)c2cc3nc(c(C)c4cc(C)c(cc5nc(cc1[nH]2)C(C)=C5CC)[nH]4)[C@@H](CCC(=O)N(C)CCCCCS[C@@H]1O[C@H](CO)[C@@H](O)[C@H](O)[C@H]1O)[C@@H]3C [Compound 8, 3-((7S,8S)-18-ethyl-2,5,8,12,17-pentamethyl-13-vinyl-7H,8H-porphyrin-7-yl)-N-methyl-N-(5-(((2S,3R,4S,5S,6R)-3,4,5-trihydroxy-6-(hydroxymethyl)tetrahydro-2H-pyran-2-yl)thio)pentyl)propanamide]	1314.0	12.55	0.06	IC90 [3, 6]: < 0.1 µM; Fold increase in cellular phototoxicity compared to compound 2 ([3]; SKOV3, IC90): approximately 4 fold
C=Cc1c(C)c2cc3nc(c(C)c4cc(C)c(cc5nc(cc1[nH]2)C(C)=C5CC)[nH]4)[C@@H](CCC(=O)N(C)CCC[S+]([O-])[C@@H]1O[C@H](CO)[C@@H](O)[C@H](O)[C@H]1O)[C@@H]3C (stereo partly drawn) [Compound 9, 3-((7S,8S)-18-ethyl-2,5,8,12,17-pentamethyl-13-vinyl-7H,8H-porphyrin-7-yl)-N-methyl-N-(3-(((2S,3R,4S,5S,6R)-3,4,5-trihydroxy-6-(hydroxymethyl)tetrahydro-2H-pyran-2-yl)thio)propyl)propanamide sulphoxide]	1396.0	70.24	–	IC90 [3, 7]: 0.19 µM
C=Cc1c(C)c2cc3nc(c(C)c4cc(C)c(cc5nc(cc1[nH]2)C(C)=C5CC)[nH]4)[C@@H](CCC(=O)N(C)CCO)[C@@H]3C [Compound 10, 3-((7S,8S)-18-ethyl-2,5,8,12,17-pentamethyl-13-vinyl-7H,8H-porphyrin-7-yl)-N-(2-hydroxyethyl)-N-methylpropanamide]	1691.0	14.94	0.16	–
C=Cc1c(C)c2cc3nc(c(C)c4cc(C)c(cc5nc(cc1[nH]2)C(C)=C5CC)[nH]4)[C@@H](CCC(=O)N(C)CCCS[C@@H]1O[C@H](COC(C)=O)[C@@H](OC(C)=O)[C@H](OC(C)=O)[C@H]1OC(C)=O)[C@@H]3C [Compound 11, (2R,3R,4S,5R,6S)-2-(acetoxymethyl)-6-((3-(3-((7S,8S)-18-ethyl-2,5,8,12,17-pentamethyl-13-vinyl-7H,8H-porphyrin-7-yl)-N-methylpropanamido)propyl)thio)tetrahydro-2H-pyran-3,4,5-triyl triacetate]	1434.0	29.00	–	IC90 [3, 7]: 0.5 µM
C=Cc1c(C)c2cc3nc(c(C)c4cc(C)c(cc5nc(cc1[nH]2)C(C)=C5CC)[nH]4)[C@@H](CCC(=O)N(C)CCCS[C@@H]1O[C@H](COC(=O)[C@@H](N)C(C)C)[C@@H](O)[C@H](O)[C@H]1O)[C@@H]3C [Compound 12, ((2R,3S,4S,5R,6S)-6-((3-(3-((7S,8S)-18-ethyl-2,5,8,12,17-pentamethyl-13-vinyl-7H,8H-porphyrin-7-yl)-N-methylpropanamido)propyl)thio)-3,4,5-trihydroxytetrahydro-2H-pyran-2-yl)methyl L-valinate hydrochloride]	1121.0	28.36	–	IC90 [3, 7]: 0.18 µM
C=Cc1c(C)c2cc3nc(c(C)c4cc(C)c(cc5nc(cc1[nH]2)C(C)=C5CC)[nH]4)[C@@H](CCC(=O)N[C@H]1C(O)O[C@H](CO)[C@@H](O)[C@@H]1O)[C@@H]3C (stereo partly drawn) [Compound 13, phyllochlorin 2-deoxyglucosamine-propylamide]	1423.0	13.02	–	IC90 [3, 7]: 0.12 µM
